Patent US6924302B2, “Substituted triazole diamine derivatives as kinase inhibitors” (Ortho McNeil Pharmaceutical, Inc., priority 2000, dated 2005)
Where two headings read alike, the source gives them in different places.

What was measured:
CDK1:Cyclin-B = target: T1, CDK1:Cyclin-B (Homo sapiens, UniProt P06493); assay: CDK1 Screening Assay; type: biochemical; details: read-out: CDK1 IC50
T1 construct: purchased New England Biolabs 6020; host or cells: insect cells
In short: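 Human CDK1:cyclin-B (30 ng/well) with biotinylated histone-H1 peptide and ^33P-γ-ATP, 1 h at 30° C, 1% DMSO, on streptavidin FlashPlate; incorporation read by scintillation.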

Insulin Receptor Kinase = Insulin Receptor Kinase (Homo sapiens, UniProt P06213); assay: Kinase Selectivity Assay Insulin Receptor Kinase; type: biochemical; details: Kinase Selectivity, Tables 2a-2k; read-out: Insulin R Kinase IC50
In short: (§1)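 Inhibition was measured as reduced ^33P-γ-ATP labelling of a biotinylated peptide substrate immobilized on streptavidin plates after one hour at 30° C.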

[1] = target: T2, Casein Kinase 2 (alpha and beta subunits) (Homo sapiens, UniProt P68400); assay: Kinase Selectivity Assay Casein Kinase 2; type: biochemical; details: Kinase Selectivity, Tables 2a-2k; read-out: Caseine Kinase 2 IC50
T2 construct: purchased New England Biolabs 6010; host or cells: E. coli
In short: as §1

[2] = target: T3, Glycogen Synthase Kinase-3 (beta isoform) (Oryctolagus cuniculus, UniProt G1T8E2); assay: Kinase Selectivity Assay Glycogen Synthase Kinase-3; type: biochemical, rabbit
T3 construct: purchased New England Biolabs 6040; host or cells: E. coli
In short: as §1

[3] = Kinase Selectivity, Tables 2a-2k
[4] = Kinase Selectivity, Tables 2a-2k, read-out: GSK-3 IC50

T3 sequence (G1T8E2 1-432): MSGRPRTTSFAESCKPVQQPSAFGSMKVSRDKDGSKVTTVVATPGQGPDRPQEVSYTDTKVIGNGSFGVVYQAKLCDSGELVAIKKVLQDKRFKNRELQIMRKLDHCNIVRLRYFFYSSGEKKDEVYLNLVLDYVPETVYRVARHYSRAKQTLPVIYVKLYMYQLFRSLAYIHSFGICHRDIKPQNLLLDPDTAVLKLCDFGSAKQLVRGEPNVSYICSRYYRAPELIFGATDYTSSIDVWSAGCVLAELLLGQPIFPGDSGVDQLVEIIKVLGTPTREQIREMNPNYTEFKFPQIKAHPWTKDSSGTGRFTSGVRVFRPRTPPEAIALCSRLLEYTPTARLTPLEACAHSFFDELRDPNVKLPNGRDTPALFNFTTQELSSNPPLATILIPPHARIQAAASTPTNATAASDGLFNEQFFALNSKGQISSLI
Insulin Receptor Kinase, sequence (P06213 980-1352): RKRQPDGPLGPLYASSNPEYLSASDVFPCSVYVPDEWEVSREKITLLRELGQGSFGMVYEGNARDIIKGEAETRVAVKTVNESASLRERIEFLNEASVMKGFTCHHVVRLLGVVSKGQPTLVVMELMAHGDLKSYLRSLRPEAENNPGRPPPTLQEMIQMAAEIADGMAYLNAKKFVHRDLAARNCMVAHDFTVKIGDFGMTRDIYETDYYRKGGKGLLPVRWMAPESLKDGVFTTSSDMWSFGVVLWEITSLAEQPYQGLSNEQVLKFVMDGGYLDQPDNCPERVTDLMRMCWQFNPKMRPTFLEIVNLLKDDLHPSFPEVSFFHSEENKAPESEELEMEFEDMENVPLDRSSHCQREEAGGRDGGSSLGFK
T2 sequence (P68400 whole entry): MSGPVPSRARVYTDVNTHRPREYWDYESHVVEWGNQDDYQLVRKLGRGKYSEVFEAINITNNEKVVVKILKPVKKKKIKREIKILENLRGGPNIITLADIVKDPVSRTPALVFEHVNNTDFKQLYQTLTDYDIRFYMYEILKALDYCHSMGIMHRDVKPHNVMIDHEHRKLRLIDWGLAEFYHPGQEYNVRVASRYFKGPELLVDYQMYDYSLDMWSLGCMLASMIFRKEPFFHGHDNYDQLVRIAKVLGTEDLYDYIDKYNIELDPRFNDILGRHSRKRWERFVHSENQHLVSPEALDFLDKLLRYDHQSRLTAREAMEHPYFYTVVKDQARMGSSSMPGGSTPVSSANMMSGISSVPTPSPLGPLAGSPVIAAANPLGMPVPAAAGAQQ
T2 sequence (P67870 whole entry partner): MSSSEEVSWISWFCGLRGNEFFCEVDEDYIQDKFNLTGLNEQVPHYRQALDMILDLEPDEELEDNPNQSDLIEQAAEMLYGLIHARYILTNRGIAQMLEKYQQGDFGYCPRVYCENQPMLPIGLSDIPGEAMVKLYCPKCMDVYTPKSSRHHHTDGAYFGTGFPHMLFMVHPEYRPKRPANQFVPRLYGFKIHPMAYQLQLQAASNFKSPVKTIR
T1 sequence (P06493 whole entry): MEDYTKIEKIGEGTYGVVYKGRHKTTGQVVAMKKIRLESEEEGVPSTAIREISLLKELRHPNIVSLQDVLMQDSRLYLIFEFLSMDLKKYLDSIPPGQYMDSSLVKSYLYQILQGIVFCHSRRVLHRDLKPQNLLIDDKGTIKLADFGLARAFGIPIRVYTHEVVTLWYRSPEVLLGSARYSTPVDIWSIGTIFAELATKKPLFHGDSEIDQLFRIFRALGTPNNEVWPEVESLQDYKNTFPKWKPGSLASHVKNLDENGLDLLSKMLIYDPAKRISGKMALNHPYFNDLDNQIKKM
T1 sequence (P14635 whole entry partner): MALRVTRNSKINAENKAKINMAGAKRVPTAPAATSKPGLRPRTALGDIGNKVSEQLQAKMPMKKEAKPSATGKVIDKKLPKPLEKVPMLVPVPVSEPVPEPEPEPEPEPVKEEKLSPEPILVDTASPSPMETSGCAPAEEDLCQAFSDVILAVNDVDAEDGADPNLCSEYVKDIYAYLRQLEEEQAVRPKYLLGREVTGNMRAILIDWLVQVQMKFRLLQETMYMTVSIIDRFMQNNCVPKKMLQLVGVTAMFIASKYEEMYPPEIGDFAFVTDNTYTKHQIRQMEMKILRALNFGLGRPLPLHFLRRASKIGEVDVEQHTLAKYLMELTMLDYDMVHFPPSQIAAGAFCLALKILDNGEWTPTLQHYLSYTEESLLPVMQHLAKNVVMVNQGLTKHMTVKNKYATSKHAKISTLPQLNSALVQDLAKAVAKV

Row | Compound | IC50 (CDK1:Cyclin-B; [3]) [nM] | IC50 (CDK1:Cyclin-B; Table 1) [nM] | IC50 (Insulin Receptor Kinase) [nM] | IC50 [1] [nM] | IC50 [2, 4] [nM] | IC50 [2] [nM]
1 | Nc1nc(Nc2ccc(S(N)(=O)=O)cc2)nn1C(=O)c1sccc1F [Cpd 16, 4-[[5-amino-1-[(3-fluoro-2-thienyl)carbonyl]-1H-1,2,4-triazol-3-yl]amino]-benzenesulfonamide] | 21 | 2.1 | > 100000 | > 100000 | 4 | 
2 | CCc1ccc(C(=O)n2nc(Nc3ccc(S(=O)(=O)NC)cc3)nc2N)s1 [Cpd 84, 4-[[5-amino-1-[(5-ethyl-2-thienyl)carbonyl]-1H-1,2,4-triazol-3-yl]amino]-N-methyl-benzenesulfonamide] | 4 | 3.8 | 172 | 1670 | 19 | 
3 | Nc1nc(Nc2ccc(S(N)(=O)=O)cc2)nn1C(=O)c1c(F)cccc1F [Cpd 1, 4-[[5-amino-1-(2,6-difluorobenzoyl)-1H-1,2,4-triazol-3-yl]amino]-benzenesulfonamide] | 6 | 6.4 | > 100000 | > 100000 |  | 41
4 | Cc1ccsc1C(=O)n1nc(Nc2ccc(S(=O)(=O)NCCN(C)C)cc2)nc1N [Cpd 104, 4-[[5-amino-1-[(3-methyl-2-thienyl)carbonyl]-1H-1,2,4-triazol-3-yl]amino]-N-[2-(dimethylamino)ethyl]-benzenesulfonamide] | 1.6 | 15.6 | 2090 | > 100000 | 20 | 
5 | Cc1ccsc1C(=O)n1nc(Nc2ccc(N3CCNC3=O)cc2)nc1N [Cpd 113, 1-[4-[[5-amino-1-[(3-methyl-2-thienyl)carbonyl]-1H-1,2,4-triazol-3-yl]amino]phenyl]-2-imidazolidinone] | 254 | 254 | > 10000 | > 100000 | 71 | 
6 | CC(O)c1ccc(F)c(C(=O)n2nc(Nc3ccc(S(N)(=O)=O)cc3)nc2N)c1F (stereo not shown) [Cpd 58, 4-[[5-amino-1-[2,6-difluoro-3-(1-hydroxyethyl)benzoyl]-1H-1,2,4-triazol-3-yl]amino]-benzenesulfonamide] | 14 | 14 | > 100000 | > 100000 | 15 | 
7 | Cc1nc(C)c(C(=O)n2nc(Nc3ccc(S(N)(=O)=O)cc3)nc2N)s1 [Cpd 34, 4-[[5-amino-1-[(2,4-dimethyl-5-thiazolyl)carbonyl]-1H-1,2,4-triazol-3-yl]amino]-benzenesulfonamide] | 2 | 1.6 | > 10000 | > 100000 | 15 | 
8 | Cc1cc(C)c(C(=O)n2nc(Nc3ccc(S(=O)(=O)Nc4ccccn4)cc3)nc2N)s1 [Cpd 120] | 277 | 277 | > 100000 | > 100000 | 18 | 
9 | CC(C)(C)c1ccc(C(=O)n2nc(Nc3ccc(S(N)(=O)=O)cc3)nc2N)s1 [Cpd 51, 4-[[5-amino-1-[[5-(1,1-dimethylethyl)-2-thienyl]carbonyl]-1H-1,2,4-triazol-3-yl]amino]-benzenesulfonamide] | 7 | 7 | 77 | 1780 | 20 | 
10 | CN1CCN(c2ccc(Nc3nc(N)n(C(=O)c4c(F)cccc4F)n3)cc2)CC1 [Cpd 71, 1-(2,6-difluorobenzoyl)-N^3-[4-(4-methyl-1-piperazinyl)phenyl]-1H-1,2,4-triazole-3,5-diamine] | 3710 | 3710 | 35300 | > 100000 | 1720 | 
11 | CNS(=O)(=O)c1ccc(Nc2nc(N)n(C(=O)c3sccc3C)n2)cc1 [Cpd 82, 4-[[5-amino-1-[(3-methyl-2-thienyl)carbonyl]-1H-1,2,4-triazol-3-yl]amino]-N-methyl-benzenesulfonamide] | 9 | 9 | 1100 | > 100000 | 25 | 
12 | Nc1nc(Nc2ccc(N3CCCS3(=O)=O)cc2)nn1C(=O)c1c(F)cccc1F [Cpd 117] |  |  | > 100000 | > 100000 | 1040 | 
13 | Nc1nc(Nc2ccc(S(N)(=O)=O)cc2)nn1C(=O)c1ccsc1 [Cpd 30, 4-[[5-amino-1-(3-thienylcarbonyl)-1H-1,2,4-triazol-3-yl]amino]-benzenesulfonamide] | 17 | 17 | 4960 | 7600 | 14 | 
14 | Nc1nc(Nc2ccc(S(N)(=O)=O)cc2)nn1C(=O)C1CCCC1 [Cpd 38, 4-[[5-amino-1-(cyclopentylcarbonyl)-1H-1,2,4-triazol-3-yl]amino]-benzenesulfonamide] |  |  | > 100000 | > 100000 | 122 | 
15 | Cc1ccsc1C(=O)n1nc(Nc2ccc(N3CCCS3(=O)=O)cc2)nc1N [Cpd 116, N^3-[4-(1,1-dioxido-2-isothiazolidinyl)phenyl]-1-[(3-methyl-2-thienyl)carbonyl]-1H-1,2,4-triazole-3,5-diamine] | 21 | 20.8 | > 100000 | > 100000 | 62 | 
16 | Cc1cc(C)c(C(=O)n2nc(Nc3ccc(NS(C)(=O)=O)cc3)nc2N)s1 [Cpd 108, N-[4-[[5-amino-1-[(3,5-dimethyl-2-thienyl)carbonyl]-1H-1,2,4-triazol-3-5 yl]amino]phenyl]-methanesulfonamide] | 66 | 65.7 |  | > 10000 | 23 | 
17 | Nc1nc(Nc2ccc(S(N)(=O)=O)cc2)nn1C(=O)C1CCCCC1 [Cpd 39, 4-[[5-amino-1-(cyclohexylcarbonyl)-1H-1,2,4-triazol-3-yl]amino]-benzenesulfonamide] |  |  | 19400 | > 100000 | 127 | 
18 | Cc1ccc(F)c(C(=O)n2nc(Nc3ccc(S(N)(=O)=O)cc3)nc2N)c1Cl [Cpd 69, 4-[[5-amino-1-(2-chloro-6-fluoro-3-methylbenzoyl)-1H-1,2,4-triazol-3-yl]amino]-benzenesulfonamide] | 23 | 23 | 45100 | > 100000 | 147 | 
19 | Nc1nc(Nc2ccc(S(=O)(=O)N3CCCCC3)cc2)nn1C(=O)c1cccs1 [Cpd 23, N^3-[4-(1-piperidinylsulfonyl)phenyl]-1-(2-thienylcarbonyl)-1H-1,2,4-triazole-3,5-diamine] | 89 | 88.9 | > 100000 | > 100000 | 16 | 
20 | CCc1ccc(C(=O)n2nc(Nc3ccc(S(N)(=O)=O)cc3)nc2N)s1 [Cpd 32, 4-[[5-amino-1-[(5-ethyl-2-thienyl)carbonyl]-1H-1,2,4-triazol-3-yl]amino]-benzenesulfonamide] | 3 | 3.1 | 123 | 527 | 3 | 
21 | CCc1ccc(C(=O)n2nc(Nc3ccc(S(=O)(=O)NCCN(C)C)cc3)nc2N)s1 [Cpd 103, 4-[[5-amino-1-[(5-ethyl-2-thienyl)carbonyl]-1H-1,2,4-triazol-3-yl]amino]-N-[2-(dimethylamino)ethyl]-benzenesulfonamide] | 7 | 7.4 | 123 | 5300 | 13 | 
22 | Nc1nc(Nc2ccc(S(N)(=O)=O)cc2)nn1C(=O)c1sccc1Cl [Cpd 17, 4-[[5-amino-1-[(3-chloro-2-thienyl)carbonyl]-1H-1,2,4-triazol-3-yl]amino]-benzenesulfonamide] | 2.5 | 2.5 | 2020 | 2650 | 9 | 
23 | Cc1ccc(F)c(C(=O)n2nc(N)nc2Nc2ccc(S(N)(=O)=O)cc2)c1F [Cpd 123, 4-[[3-amino-1-(2,6-difluoro-3-methylbenzoyl)-1H-1,2,4-triazol-5-yl]amino]-benzenesulfonamide] | 2050 | 2050 | > 100000 | > 100000 | 3010 | 
24 | CNS(=O)(=O)c1ccc(Nc2nc(N)n(C(=O)c3c(F)ccc(C)c3F)n2)cc1 [Cpd 81, 4-[[5-amino-1-(2,6-difluoro-3-methylbenzoyl)-1H-1,2,4-triazol-3-yl]amino]-N-methyl-benzenesulfonamide] |  |  | 29600 | > 100000 | 49 | 
25 | Nc1nc(Nc2ccc(S(=O)(=O)Nc3ccccn3)cc2)nn1C(=O)c1c(F)cccc1F [Cpd 118, 4-[[5-amino-1-(2,6-difluorobenzoyl)-1H-1,2,4-triazol-3-yl]amino]-N-(2-pyridinyl)-benzenesulfonamide] | 330 | 330 | > 100000 | > 100000 | 159 | 
26 | Nc1nc(Nc2ccc(S(N)(=O)=O)cc2)nn1C(=O)c1sccc1Br [Cpd 35, 4-[[5-amino-1-[(3-bromo-2-thienyl)carbonyl]-1H-1,2,4-triazol-3-yl]amino]-benzenesulfonamide] |  | 1.1 |  |  |  | 
27 | CNS(=O)(=O)c1ccc(Nc2nc(N)n(C(=O)c3c(F)cccc3F)n2)cc1 [Cpd 80, 4-[[5-amino-1-(2,6-difluorobenzoyl)-1H-1,2,4-triazol-3-yl]amino]-N-methyl-benzenesulfonamide] |  | 45.2 |  |  |  | 
